Values quoted from earlier work, collected in patent publication US8399704B2, “Methods for salt production” (Colgate-Palmolive Company, priority 2008, dated 2013).

Settings: room temperature, natural partial pressure (3.5×10^−4 atmosphere)

For `O=C=O` [Carbon dioxide], the “maximum concentration of carbon dioxide in water” value is given as “about 1.2×10^−5 M”.
